In patent US9371295B2, “Compounds for use in the treatment of disorders that are ameliorated by inhibition of HDAC” (IRBM—Science Park S.p.A., priority 2012, dated 2016):

Key:
HDAC1 = target: T1, HDAC1 (Homo sapiens, UniProt Q13547); test: HDAC1 assay (Fluor-de-Lys fluorescent deacetylase assay); type: biochemical; conditions: read-out: hHDAC IC50
T1 construct: made in house
Description: The HDAC1 assay is used to quantify the histone deacetylase (HDAC) activity. The assay is performed in 384 well microtiter plates by pre-incubating serial dilutions of the compounds with a fixed concentration of HeLa nuclear extract or purified HDAC1 and then adding an acetylated lysine-containing substrate/developer that fluoresces upon deacetylation.
Reagents of the HDAC Fluorescent Activity Assay are purchased from BioMol Research Laboratories (Plymouth Meeting, Pa.) and feature the Fluor-de-Lys™ Substrate/Developer System.
TSA Stock: TSA is provided as a 10 mM stock solution in 100% dimethylsulfoxide (DMSO). […] The final concentration in the assay is 20 uM.
3 uM [final] TSA to this solution increases its ability to stop the reaction.
HDAC1 Working Solution: The HDAC1 enzyme is diluted in assay buffer prior to each use from a fresh aliquot of enzyme. The final concentration in the assay is 1-2 nM.
Compounds: Test compounds are directly transferred from a 100% DMSO solution into assay plates by spotting nanoliters of solutions by an acoustic dispenser (ATS-100, EDC biosystems, US).
HeLa cells transiently transfected with pCDNA3-HDAC1-FLAG are grown to 80% confluence on 10 cm culture dishes in DMEM, 10% Fetal bovine serum supplemented with antibiotics and glutamine. Cells are washed with 10 ml cold PBS and scraped into 2 ml of PBS. Cells are centrifuged for 5 minutes at 800×g at 4° C., washed with 30 ml PBS and resuspended in 10 ml PBS, counted, re-centrifuged and frozen at −80° C.
The frozen cell pellet is re-suspended in 1 ml of hypotonic lysis buffer (LB: 20 mM Hepes pH7.9, 0.25 mM EDTA, 10% glycerol) containing COMPLETE protease inhibitor and incubated on ice for 15 minutes, followed by homogenization on a 2-ml DounceB homogenizer (25 strokes). 150 mM KCl and 0.5% NP-40 are added to the homogenate and the solution is sonicated twice for 30 seconds (output5/6, duty cycle 90) and incubated for 1 hour at 4° C. After a 30 minutes centrifugation at 12000 rpm and 4° C. the supernatant (soluble extract) is collected and protein concentration is determined using the BIORAD assay.
Anti-FLAG M2 affinity resin (Sigma) is washed three times with TBS and twice with LB. 10 μl of the LB-washed resin/mg of protein (2-3 ug of Flagged-HDAC1) are added to the soluble extract (1 mL) and incubated overnight at 4° C. with gentle mixing. The resin is then collected by centrifugation, washed once with LB, twice with LB+0.1% NP40 and twice with elution buffer (50 mM Hepes pH 7.4, 5% glycerol, 100 mM KCl, 0.01% Triton X-100).
The concentration of purified HDAC is determined by Western blot analysis.

[1] = system: human γ-globin promoter (EGFP reporter) in K562 cells; test: HbF activation assay on K562 (EGFP/RFP reporter model system for screening of inducers of fetal hemoglobin); type: cell-based; conditions: 60 hours
Text: In order to test several compounds, a model system was produced based on previous findings present in the literature. The K562 erythroid-like cell lines, isolated and characterized by Lozzio & Lozzio (Blood, 45(3), pp 321-334) from a patient with chronic myelogenous leukemia in blast crisis, have been extensively employed as a useful in vitro model to study the molecular mechanism(s) regulating the expression of embryonic and fetal human globin genes, as well as for screening of new differentiation-inducing compounds. A stable cell line where reporter genes encoding green EGFP and far-red fluorescent protein red-FP are placed under the control of the human γ-globin or β-globin promoters respectively was used (see Vadolas et al, Hum. Mol. Genet. 2004, 13, 2, 223-233 for details). The modified 3-cluster also contains the upstream regulatory region called LCR. This cell line grows in suspension at 37° C. and 5% CO2 in humidified atmosphere in the following medium: DMEM, 10% foetal bovine serum, glutamine and antibiotics (penicillin and streptomycin);
The assay procedures is as follows: • Single concentration compounds or serially diluted samples are transferred to an empty assay plates by a spotter (ATS-100, EDC Biosystems, USA) in order to have a final concentration of DMSO of 0.25% in 50 μL of cell culture. Source plats contains compounds dissolved in 100% DMSO • Black, transparent bottom, 384 wells, tissue culture treated plates are used as assay plates. • Assay plates containing spotted compounds are filled with a suspension of cell in the described assay medium. The final cell concentration is of 1000 cells per well. • Cells are incubated in humidified atmosphere, 37° C.-5% CO2, for 60 hours • Cell nuclei are stained by adding 10 ul (6 μM; 1 μM final) Hoechst 33342 (Life Technologies, USA) • The cell associated intensity is read by a plate based cytometer (ACUMEN explorer, TTP Labtech, UK) • The nuclei count is used to assess the cell proliferation/death and to normalize the total EGFP/RFP intensity. HbF Activation Assay in Human Cell Line K562
The compounds of the invention were tested in the HbF activation assay on K562, as model system for screening of potential inducers of fetal hemoglobin.

HDAC in Hela cells = test: HDAC Hela Cell Based assay

T1 sequence (Q13547 whole entry): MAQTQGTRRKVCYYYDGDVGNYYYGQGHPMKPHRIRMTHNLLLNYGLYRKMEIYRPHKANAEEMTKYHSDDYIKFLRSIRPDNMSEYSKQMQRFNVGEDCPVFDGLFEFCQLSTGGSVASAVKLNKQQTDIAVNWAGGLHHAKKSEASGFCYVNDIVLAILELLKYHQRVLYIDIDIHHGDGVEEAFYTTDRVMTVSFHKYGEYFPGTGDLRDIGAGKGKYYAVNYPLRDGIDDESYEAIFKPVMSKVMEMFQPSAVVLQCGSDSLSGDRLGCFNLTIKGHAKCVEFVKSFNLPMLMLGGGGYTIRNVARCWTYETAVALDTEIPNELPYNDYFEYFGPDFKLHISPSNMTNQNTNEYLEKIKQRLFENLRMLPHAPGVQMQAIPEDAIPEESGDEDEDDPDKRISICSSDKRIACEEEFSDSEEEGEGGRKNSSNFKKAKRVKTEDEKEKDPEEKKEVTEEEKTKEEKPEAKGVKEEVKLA

| Compound | IC50 (HDAC1) | EC50 [1] | IC50 (HDAC in Hela cells) |
| --- | --- | --- | --- |
| CCC(=O)CCCCC[C@H](NC(=O)Cc1c[nH]cn1)c1ncc(-c2cc3ccccc3nc2OC)o1 [Compound 73, (S)-2-(1H-imidazol-4-yl)-N-(1-(5-(2-methoxyquinolin-3-yl)oxazol-2-yl)-7-oxononyl)acetamide] | < 100 nM | > 1000 nM | 100 to 1000 nM |
| CCC(=O)CCCCC[C@H](NC(=O)Cc1cccnc1)c1ncc(-c2cc3ccccc3nc2OC)o1 [Compound 74, (S)-N-(1-(5-(2-methoxyquinolin-3-yl)oxazol-2-yl)-7-oxononyl)-2-(pyridin-3-yl)acetamide] | < 100 nM | > 1000 nM | 100 to 1000 nM |
| CCC(=O)CCCCC[C@H](NC(=O)CCn1ccnc1)c1ncc(-c2cc3ccccc3nc2OC)o1 [Compound 75, (S)-3-(1H-imidazol-1-yl)-N-(1-(5-(2-methoxyquinolin-3-yl)oxazol-2-yl)-7-oxononyl)propanamide] | < 100 nM | 100 to 1000 nM | 100 to 1000 nM |
| CCC(=O)CCCCC[C@H](NC(=O)Cc1nccs1)c1ncc(-c2cc3ccccc3nc2OC)o1 [Compound 76, (S)-N-(1-(5-(2-methoxyquinolin-3-yl)oxazol-2-yl)-7-oxononyl)-2-(thiazol-2-yl)acetamide] | < 100 nM | > 1000 nM | 100 to 1000 nM |
| CCC(=O)CCCCC[C@H](NC(=O)Cc1nonc1C)c1ncc(-c2cc3ccccc3nc2OC)o1 [Compound 77, (S)-N-(1-(5-(2-methoxyquinolin-3-yl)oxazol-2-yl)-7-oxononyl)-2-(4-methyl-1,2,5-oxadiazol-3-yl)acetamide] | < 100 nM | > 1000 nM | 100 to 1000 nM |
| CCC(=O)CCCCC[C@H](NC(=O)Cn1ccc(C)n1)c1ncc(-c2cc3ccccc3nc2OC)o1 [Compound 78, (S)-N-(1-(5-(2-methoxyquinolin-3-yl)oxazol-2-yl)-7-oxononyl)-2-(3-methyl-1H-pyrazol-1-yl)acetamide] | < 100 nM | > 1000 nM | 100 to 1000 nM |
| CCC(=O)CCCCC[C@H](NC(=O)Cc1ncccn1)c1ncc(-c2cc3ccccc3nc2OC)o1 [Compound 79, (S)-N-(1-(5-(2-methoxyquinolin-3-yl)oxazol-2-yl)-7-oxononyl)-2-(pyrimidin-2-yl)acetamide] | < 100 nM | > 1000 nM | 100 to 1000 nM |
| CCC(=O)CCCCC[C@H](NC(=O)Cn1nc(C)cc1C)c1ncc(-c2cc3ccccc3nc2OC)o1 [Compound 81, (S)-2-(3,5-dimethyl-1H-pyrazol-1-yl)-N-(1-(5-(2-methoxyquinolin-3-yl)oxazol-2-yl)-7-oxononyl)acetamide] | < 100 nM | > 1000 nM | 100 to 1000 nM |
| CCC(=O)CCCCC[C@H](NC(=O)c1sc(C)nc1C)c1ncc(-c2cc3ccccc3nc2OC)o1 [Compound 83, (S)-N-(1-(5-(2-methoxyquinolin-3-yl)oxazol-2-yl)-7-oxononyl)-2,4-dimethylthiazole-5-carboxamide] | < 100 nM | > 1000 nM | 100 to 1000 nM |
| CCC(=O)CCCCC[C@H](NC(=O)C1(C)CN(C)C1)c1ncc(-c2cc3ccccc3nc2OC)o1 [Compound 84, (S)-N-(1-(5-(2-methoxyquinolin-3-yl)oxazol-2-yl)-7-oxononyl)-1,3-dimethylazetidine-3-carboxamide] | < 100 nM | 100 to 1000 nM | 100 to 1000 nM |
| CCC(=O)CCCCC[C@H](NC(=O)C1CCN1C)c1ncc(-c2cc3ccccc3nc2OC)o1 (stereo partly drawn) [Compound 85, N-((S)-1-(5-(2-methoxyquinolin-3-yl)oxazol-2-yl)-7-oxononyl)-1-methylazetidine-2-carboxamide] | < 100 nM | > 1000 nM | 100 to 1000 nM |
| CCC(=O)CCCCC[C@H](NC(=O)Cn1cncn1)c1ncc(-c2cc3ccccc3nc2OC)o1 [Compound 86, (S)-N-(1-(5-(2-methoxyquinolin-3-yl)oxazol-2-yl)-7-oxononyl)-2-(1H-1,2,4-triazol-1-yl)acetamide] | < 100 nM | > 1000 nM | 100 to 1000 nM |
| CCC(=O)CCCCC[C@H](NC(=O)c1ccnn1C)c1ncc(-c2cc3ccccc3nc2OC)o1 [Compound 87, (S)-N-(1-(5-(2-methoxyquinolin-3-yl)oxazol-2-yl)-7-oxononyl)-1-methyl-1H-pyrazole-5-carboxamide] | < 100 nM | 100 to 1000 nM | 100 to 1000 nM |

Further lines, results first:

| IC50 (HDAC1) | EC50 [1] | IC50 (HDAC in Hela cells) | Compound |
| --- | --- | --- | --- |
| < 100 nM | > 1000 nM | 100 to 1000 nM | CCC(=O)CCCCC[C@H](NC(=O)C1CN(C)C1)c1ncc(-c2ccc(-c3ccc(OC)nc3)cc2)o1 [Compound 65, (S)-N-(1-(5-(4-(6-methoxypyridin-3-yl)phenyl)oxazol-2-yl)-7-oxononyl)-1-methylazetidine-3-carboxamide] |
| < 100 nM | > 1000 nM | 100 to 1000 nM | CCC(=O)CCCCC[C@H](NC(=O)[C@@H]1C[C@H](F)CN1C)c1ncc(-c2cc3ccccc3nc2OC)o1 [Compound 66, (2S,4S)-4-fluoro-N-((S)-1-(5-(2-methoxyquinolin-3-yl)oxazol-2-yl)-7-oxononyl)-1-methylpyrrolidine-2-carboxamide] |
| < 100 nM | > 1000 nM | 100 to 1000 nM | CCC(=O)CCCCC[C@H](NC(=O)C1(F)CCN(C)CC1)c1ncc(-c2cc3ccccc3nc2OC)o1 [Compound 68, (S)-4-fluoro-N-(1-(5-(2-methoxyquinolin-3-yl)oxazol-2-yl)-7-oxononyl)-1-methylpiperidine-4-carboxamide] |
| < 100 nM | > 1000 nM | 100 to 1000 nM | CCC(=O)CCCCC[C@H](NC(=O)C(=O)N1CCOCC1)c1ncc(-c2cc3ccccc3nc2OC)o1 [Compound 69, (S)-N-(1-(5-(2-methoxyquinolin-3-yl)oxazol-2-yl)-7-oxononyl)-2-morpholino-2-oxoacetamide] |
| < 100 nM | > 1000 nM | 100 to 1000 nM | CCC(=O)CCCCC[C@H](NC(=O)C1CN(C)C1)c1ncc(-c2cccc3cccnc23)o1 [Compound 70, (S)-1-methyl-N-(7-oxo-1-(5-(quinolin-8-yl)oxazol-2-yl)nonyl)azetidine-3-carboxamide] |
| < 100 nM | > 1000 nM | 100 to 1000 nM | CCC(=O)CCCCC[C@H](NC(=O)C1CN(C)C1)c1nnc(-c2cc3ccccc3n(C)c2=O)o1 [Compound 71, (S)-1-methyl-N-(1-(5-(1-methyl-2-oxo-1,2-dihydroquinolin-3-yl)-1,3,4-oxadiazol-2-yl)-7-oxononyl)azetidine-3-carboxamide] |
| < 100 nM | 100 to 1000 nM | 100 to 1000 nM | CCC(=O)CCCCC[C@H](NC(=O)C1CNC(=O)C1)c1ncc(-c2cc3ccccc3nc2OC)o1 (stereo partly drawn) [Compound 72, N-((S)-1-(5-(2-methoxyquinolin-3-yl)oxazol-2-yl)-7-oxononyl)-5-oxopyrrolidine-3-carboxamide] |
